This is an account of results in patent US20240254118A1, “PRMT5 INHIBITORS AND USES THEREOF” (Gilead Sciences, Inc., priority 2022, published 2024).

In experiment [1] the test system is SDMA signal (PRMT5 inhibition) in HCT116 MTAP-deleted cells. In words: Symmetric di-methyl arginine image-based high content screen assay (SDMA assay), HCT116 MTAP-deleted. It is filed as cell-based. The note with it: SDMA assay; for EC50: Homo sapiens, HCT-116, 72 h, 3 days of treatment, cell line not given, taken as HCT116 MTAP-deleted, read-out: EC50 (SDMA assay); for EC50 selectivity (SDMA assay): taken as HCT116 WT versus MTAP-deleted. Summed up: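 Read-out: per-cell mean SDMA immunofluorescence (Alexa Fluor 488 secondary), cells segmented by DAPI on a high-content imager. Compound exposure in HCT116 MTAP-deleted cells lasted until fixation on Day 3; overnight 4° C primary anti-SDMA antibody staining.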

The test system of experiment [2] is HCT116 MTAP-deleted cells. In words: Cell viability assay (CellTiter-Glo, 7 days), HCT116 MTAP-deleted. The note with it: Homo sapiens, HCT-116, 168 h. (In ATP-based viability assays light output follows the ATP content of the culture.)

By EC50 is commonly meant the concentration giving half of the maximal effect. Usually CC50 stands for the concentration at which the toxic effect on the cells reaches its halfway point.

Regarding `COC12CC(C(=O)N(C)N(Cc3ccc(C(F)(F)F)cn3)C(=O)c3ccc4nc(N)c5cnn(C)c5c4c3)(C1)C2` [Example 187, 4-amino-N′-(3-methoxybicyclo[1.1.1]pentane-1-carbonyl)-N′,1-dimethyl-N-[[5-(trifluoromethyl)-2-pyridyl]methyl]pyrazolo[4,3-c]quinoline-8-carbohydrazide], in experiment [1], the 50% effective concentration (EC50) fell in the range of 1 to 5 nM and the “EC50 selectivity (SDMA assay)” value is on record as 50. The 50% cytotoxic concentration (CC50) in experiment [2] is under 100 nM.
With `CN(C(=O)C12CC(C#N)(C1)C2)N(Cc1ccc(C(F)(F)F)cn1)C(=O)c1ccc2nc(N)c3cnn(C)c3c2c1` [Example 188, 4-amino-N′-(3-cyanobicyclo[1.1.1]pentane-1-carbonyl)-N′,1-dimethyl-N-[[5-(trifluoromethyl)-2-pyridyl]methyl]pyrazolo[4,3-c]quinoline-8-carbohydrazide], in experiment [1], the EC50 was over 5 nM and the “EC50 selectivity (SDMA assay)” value is given as 62. The molecule also displayed a CC50 in experiment [2] of 100 to 1000 nM.
`CN(C(=O)C(C)(F)F)N(Cc1ccc(C(F)(F)F)cn1)C(=O)c1ccc2nc(N)c3cnn(C)c3c2c1` [Example 189, 4-amino-N′-(2,2-difluoropropanoyl)-N′,1-dimethyl-N-[[5-(trifluoromethyl)-2-pyridyl]methyl]pyrazolo[4,3-c]quinoline-8-carbohydrazide]: in experiment [1], the EC50 is under 1 nM and the “EC50 selectivity (SDMA assay)” value is on record as 13. Besides, in experiment [2], the CC50 is under 100 nM.
On the same counts, the results for `Cn1ncc2c(N)nc3ccc(C(=O)N(Cc4ccc(C(F)(F)F)cn4)N4CC5(CC5)OC4=O)cc3c21` [Example 190, 4-amino-1-methyl-N-(5-oxo-4-oxa-6-azaspiro[2.4]heptan-6-yl)-N-[[5-(trifluoromethyl)-2-pyridyl]methyl]pyrazolo[4,3-c]quinoline-8-carboxamide] are under 1 nM, 144 and under 100 nM.
In the same order, the values of `Cn1ncc2c(N)nc3ccc(C(=O)N(Cc4ccc(C(F)(F)F)cn4)N4CC5(COC5)OC4=O)cc3c21` [Example 191, 4-amino-1-methyl-N-(6-oxo-2,5-dioxa-7-azaspiro[3.4]octan-7-yl)-N-[[5-(trifluoromethyl)-2-pyridyl]methyl]pyrazolo[4,3-c]quinoline-8-carboxamide] are over 5 nM, 103 and 100 to 1000 nM.
On the same counts, the results for `CN(C(=O)C1(C#N)CCC1)N(Cc1ccc(C(F)(F)F)cn1)C(=O)c1ccc2nc(N)c3cnn(C)c3c2c1` [Example 192, 4-amino-N′-(1-cyanocyclobutanecarbonyl)-N′,1-dimethyl-N-[[5-(trifluoromethyl)-2-pyridyl]methyl]pyrazolo[4,3-c]quinoline-8-carbohydrazide] are 1 to 5 nM, 185 and 100 to 1000 nM.
Regarding `CN(C(=O)C1(F)CC1)N(Cc1ccc(C(F)(F)F)nn1)C(=O)c1ccc2nc(N)c3cnn(C)c3c2c1` [Example 193, 4-amino-N′-(1-fluorocyclopropanecarbonyl)-N′,1-dimethyl-N-[[6-(trifluoromethyl)pyridazin-3-yl]methyl]pyrazolo[4,3-c]quinoline-8-carbohydrazide], in experiment [1], the EC50 is under 1 nM and the “EC50 selectivity (SDMA assay)” value is reported as 202. In experiment [2], this molecule gave a CC50 of under 100 nM.
`CN(C(=O)C1(F)CC1)N(Cc1ccc(C(F)(F)F)nn1)C(=O)c1cc2c(cc1F)nc(N)c1cnn(C)c12` [Example 194, 4-amino-7-fluoro-N′-(1-fluorocyclopropanecarbonyl)-N′, 1-dimethyl-N-[[6-(trifluoromethyl)pyridazin-3-yl]methyl]pyrazolo[4,3-c]quinoline-8-carbohydrazide]: in experiment [1], the EC50 is under 1 nM and the “EC50 selectivity (SDMA assay)” value is 68. The molecule further came in with a CC50 in experiment [2] of under 100 nM.
In the same order, the values of `CN(C(=O)C(F)F)N(Cc1ccc(C(F)(F)F)cn1)C(=O)c1ccc2nc(N)c3cnn(C)c3c2c1` [Example 195, 4-amino-N′-(2,2-difluoroacetyl)-N′,1-dimethyl-N-[[5-(trifluoromethyl)-2-pyridyl]methyl]pyrazolo[4,3-c]quinoline-8-carbohydrazide] are under 1 nM, 146 and under 100 nM.
On to `CC(=O)N(C)N(Cc1ccc2ncsc2c1)C(=O)c1ccc2nc(N)c3cnn(C)c3c2c1` [Example 196, N′-acetyl-4-amino-N-(1,3-benzothiazol-6-ylmethyl)-N′,1-dimethyl-pyrazolo[4,3-c]quinoline-8-carbohydrazide], for which, in experiment [1], the EC50 is 1 to 5 nM and the “EC50 selectivity (SDMA assay)” value came to 137. The 50% cytotoxic concentration (CC50) in experiment [2] was under 100 nM.
In the same order, the values of `CN(C(=O)[C@H]1CCO1)N(Cc1ccc(C(F)(F)F)cc1F)C(=O)c1ccc2nc(N)c3cnn(C)c3c2c1` [Example 197, 4-amino-N-[[2-fluoro-4-(trifluoromethyl)phenyl]methyl]-N′,1-dimethyl-N′-[(2R)-oxetane-2-carbonyl]pyrazolo[4,3-c]quinoline-8-carbohydrazide] are under 1 nM, 61 and under 100 nM.
For the molecule `CN(C(=O)[C@@H]1CCO1)N(Cc1ccc(C(F)(F)F)cc1F)C(=O)c1ccc2nc(N)c3cnn(C)c3c2c1` [Example 198, 4-amino-N-[[2-fluoro-4-(trifluoromethyl)phenyl]methyl]-N′,1-dimethyl-N′-[(2S)-oxetane-2-carbonyl]pyrazolo[4,3-c]quinoline-8-carbohydrazide], in experiment [1], the EC50 was under 1 nM and the “EC50 selectivity (SDMA assay)” value stood at 57. In addition, the CC50 in experiment [2] is under 100 nM.
In the same order, the values of `Cn1ncc2c(N)nc3ccc(C(=O)N(Cc4ccc(C(F)(F)F)cc4F)n4ccnc4)cc3c21` [Example 199, 4-amino-N-[[2-fluoro-4-(trifluoromethyl)phenyl]methyl]-N-imidazol-1-yl-1-methyl-pyrazolo[4,3-c]quinoline-8-carboxamide] are under 1 nM, 26 and under 100 nM.
On the same counts, the results for `Cn1ncc2c(N)nc3cc(F)c(C(=O)N(Cc4ccc(C(F)(F)F)cc4F)n4ccnc4)cc3c21` [Example 200, 4-amino-7-fluoro-N-[[2-fluoro-4-(trifluoromethyl)phenyl]methyl]-N-imidazol-1-yl-1-methyl-pyrazolo[4,3-c]quinoline-8-carboxamide] are under 1 nM, 6 and under 100 nM.
In the case of `COC(C)(C)C(=O)N(C)N(Cc1ccc(C(F)(F)F)cn1)C(=O)c1ccc2nc(N)c3cnn(C)c3c2c1` [Example 201, 4-amino-N′-(2-methoxy-2-methyl-propanoyl)-N′,1-dimethyl-N-[[5-(trifluoromethyl)-2-pyridyl]methyl]pyrazolo[4,3-c]quinoline-8-carbohydrazide], in experiment [1], the EC50 was in the range of 1 to 5 nM and the “EC50 selectivity (SDMA assay)” value turned out to be 423. For the same molecule, the CC50 in experiment [2] is under 100 nM.
On the same counts, the results for `Nc1nc2ccc(C(=O)N(Cc3ccc(C(F)(F)F)cn3)N3CCCCC3=O)cc2c2[nH]ncc12` [Example 202, 4-amino-N-(2-oxo-1-piperidyl)-N-[[5-(trifluoromethyl)-2-pyridyl]methyl]-1H-pyrazolo[4,3-c]quinoline-8-carboxamide] are 1 to 5 nM, 10 and under 100 nM.
In the same order, the values of `CC(=O)N(C(C)C)N(Cc1ccc(C(F)(F)F)cn1)C(=O)c1ccc2nc(N)c3cnn(C)c3c2c1` [Example 203, N′-acetyl-4-amino-N′-isopropyl-1-methyl-N-[[5-(trifluoromethyl)-2-pyridyl]methyl]pyrazolo[4,3-c]quinoline-8-carbohydrazide] are 1 to 5 nM, 159 and 100 to 1000 nM.
In the case of `CCN(C(C)=O)N(Cc1ccc(C(F)(F)F)cn1)C(=O)c1ccc2nc(N)c3cnn(C)c3c2c1` [Example 204, N′-acetyl-4-amino-N′-ethyl-1-methyl-N-[[5-(trifluoromethyl)-2-pyridyl]methyl]pyrazolo[4,3-c]quinoline-8-carbohydrazide], in experiment [1], the EC50 was in the range of 1 to 5 nM and the “EC50 selectivity (SDMA assay)” value came out at 150. The CC50 in experiment [2] was under 100 nM.
Take `CCN(C(C)=O)N(Cc1ccc(C(F)(F)F)cn1)C(=O)c1cc2c(cc1F)nc(N)c1cnn(C)c12` [Example 205, N′-acetyl-4-amino-N′-ethyl-7-fluoro-1-methyl-N-[[5-(trifluoromethyl)-2-pyridyl]methyl]pyrazolo[4,3-c]quinoline-8-carbohydrazide]: in experiment [1], the EC50 is under 1 nM and the “EC50 selectivity (SDMA assay)” value turned out to be 44. The CC50 in experiment [2] is under 100 nM.
On the same counts, the results for `CC(=O)N([C@@H]1CCOC1)N(Cc1ccc(C(F)(F)F)cn1)C(=O)c1ccc2nc(N)c3cnn(C)c3c2c1` [Example 206, N′-acetyl-4-amino-1-methyl-N′-[(3R)-tetrahydrofuran-3-yl]-N-[[5-(trifluoromethyl)-2-pyridyl]methyl]pyrazolo[4,3-c]quinoline-8-carbohydrazide] are over 5 nM, 220 and 100 to 1000 nM.
In the same order, the values of `CC(=O)N([C@H]1CCOC1)N(Cc1ccc(C(F)(F)F)cn1)C(=O)c1ccc2nc(N)c3cnn(C)c3c2c1` [Example 207, N′-acetyl-4-amino-1-methyl-N′-[(3S)-tetrahydrofuran-3-yl]-N-[[5-(trifluoromethyl)-2-pyridyl]methyl]pyrazolo[4,3-c]quinoline-8-carbohydrazide] are 1 to 5 nM, 364 and 100 to 1000 nM.
